Where “and” joins values, the source holds several entries; their conditions need not be identical. Equal values may be shown once.
How the values were obtained:
[1] = Body weight of rats over the 10-day period (Example 3); assay type: in vivo, rat; design: Body weight Difference: unit not given here; conditions: Group III, Physcion 4 mg/kg, CP 8 mg/kg
Description: The aforementioned STD05 and compounds were studied for the laxative activity. Healthy male S.D. rats (BioLASCO Taiwan Co. Ltd.) were divided into three groups (i.e., Groups 1-3) in this study. In Group I, 6 rats, as negative control, were given no treatment; 6 rats, as positive control, were given 3.35 mg/kg/day Sennosides (Through®, Chung Mei Pharmaceutical Co., Ltd; Active ingredient: Sennosides 20 mg, as sennoside A+B 12 mg, Lot. 012F 006); 6 rats were treated STD05 (8 mg/kg/day); 6 rats were treated with an extract fraction containing aloe-emodin, rhein, and emodin (“ARE”, 8 mg/kg/day); 6 rats were treated with Aloe-emodin (4 mg/kg/day); and 6 rats were treated with Rhein (4 mg/kg/day). In Group II, 6 rats, as negative control, were given no treatment; 6 rats, as positive control, were given 3.35 mg/kg/day Sennosides; 6 rats were treated STD05 (24 mg/kg/day); 6 rats were treated with an extract fraction containing ARE (24 mg/kg/day); 6 rats were treated with Chrysophanol (4 mg/kg/day); and 6 rats were treated with Emodin (4 mg/kg/day). In Group III, 6 rats, as negative control, were given no treatment; 6 rats were treated with Physcoin (4 mg/kg/day); and 6 rats were treated with a mixture of chrysophanol and physcion (8 mg/kg/day, “CP”). The experiments were carried out under controlled temperature, humidity, and lighting. Each rat was fed standard rat food and water ad libitum in housing that provided a 12-hour light/dark cycle. For statistical comparison, all of the rats were divided into six sets according to the body weights. The first part of the experiment studied the effect of the test substances on feces production. During the 10-day period, the body weights of the rats were weighed each day and recorded. The rat's feces was also studied three times in the manner described above during the 10-day period for any unusual observations. During the 10-day period, any rat that appeared dying was euthanized, dissected, and examined for any illness or injury. Any complications or illness were analyzed by H&E stains to determine the cause of death and to allow for dosage reconsiderations for future experiments. Summarized in Table 4 below are the effects of the compounds, mixtures, or extracts on the rat body weights.

healthy male S.D. rats = assay: Feces production in rats over the 10-day period (Example 3); assay type: in vivo, rat; conditions: for increase of the feces amount (wet weight): vs control of the same group; for Pellet count / Water content / Wet Weight: Group III, Physcion 4 mg/kg, CP 8 mg/kg
Description: During this period, the body weights of the rats were weighed each day and recorded. Feces of each rat were studied three times during the period for any unusual observations. Specifically, the amounts of feces were weighed on Days 11, 15, 18, and 21. During observation, each rat was placed in a metabolic cage. Feces were collected every twenty-four hours. The number of collected feces pellets was counted, and the pellets' shapes and colors were evaluated. After weighing the moist feces, they were dried in an oven at 100° C. for twenty-four hours. The water content from the feces was calculated according to the following formula: Water content percentage=[(wet weight−dry weight)/wet weight]×100%. (I) The results are summarized in Table 2 below: The aforementioned STD05 and compounds were studied for the laxative activity. Healthy male S.D. rats (BioLASCO Taiwan Co. Ltd.) were divided into three groups (i.e., Groups 1-3) in this study. In Group I, 6 rats, as negative control, were given no treatment; 6 rats, as positive control, were given 3.35 mg/kg/day Sennosides (Through®, Chung Mei Pharmaceutical Co., Ltd; Active ingredient: Sennosides 20 mg, as sennoside A+B 12 mg, Lot. 012F 006); 6 rats were treated STD05 (8 mg/kg/day); 6 rats were treated with an extract fraction containing aloe-emodin, rhein, and emodin (“ARE”, 8 mg/kg/day); 6 rats were treated with Aloe-emodin (4 mg/kg/day); and 6 rats were treated with Rhein (4 mg/kg/day). In Group II, 6 rats, as negative control, were given no treatment; 6 rats, as positive control, were given 3.35 mg/kg/day Sennosides; 6 rats were treated STD05 (24 mg/kg/day); 6 rats were treated with an extract fraction containing ARE (24 mg/kg/day); 6 rats were treated with Chrysophanol (4 mg/kg/day); and 6 rats were treated with Emodin (4 mg/kg/day). In Group III, 6 rats, as negative control, were given no treatment; 6 rats were treated with Physcoin (4 mg/kg/day); and 6 rats were treated with a mixture of chrysophanol and physcion (8 mg/kg/day, “CP”). The experiments were carried out under controlled temperature, humidity, and lighting. Each rat was fed standard rat food and water ad libitum in housing that provided a 12-hour light/dark cycle. For statistical comparison, all of the rats were divided into six sets according to the body weights. The first part of the experiment studied the effect of the test substances on feces production. During the 10-day period, the body weights of the rats were weighed each day and recorded. The rat's feces was also studied three times in the manner described above during the 10-day period for any unusual observations. During the 10-day period, any rat that appeared dying was euthanized, dissected, and examined for any illness or injury. Any complications or illness were analyzed by H&E stains to determine the cause of death and to allow for dosage reconsiderations for future experiments. Summarized in Table 4 below are the effects of the compounds, mixtures, or extracts on the rat body weights. During the period, feces produced by the rats were studied days 1, 5, and 10 in the same manner described above. […] In the 10-day period, the rats administered with STD05 produced more feces (wet weight) that the rats in the control group by about 32%. In addition, the pellet counts for the rats administered with STD05 were greater than those for the control rats by about 20%. Furthermore, STD05 increased the water content in feces by about 18%. The same experiments were conducted on rats administered with physcion, aloe-emodin, chrysophanol, rhein, emodin, CP, and ARE.

[2] = Enteric absorption rate (statement, no method given); conditions: general statement
[3] = Side effects compared with Rheum palmatum Linne herb extracts (statement, no method given); conditions: general statement

enteric absorption rate [2]: very low
Compound: COc1cc(O)c2c(c1)C(=O)c1cc(C)cc(O)c1C2=O [Physcion, physcion]
Body weight Difference, Mean ([1]; group mean, Day 10 minus Day 1): 30 g
Body weight End Day 10, Mean ([1]; group mean): 425 g
Body weight Difference ([1]; individual rats, Day 10 minus Day 1): 25 and 30 (3×) and 45 and 20
Body weight End Day 10 ([1]; individual rats, in g (unit assumed)): 410 and 430 and 450 and 385 and 415 and 460
increase of the feces amount (wet weight) (healthy male S.D. rats; Day 1): 93%
increase of the feces amount (wet weight) (healthy male S.D. rats; Day 5): 57%
increase of the feces amount (wet weight) (healthy male S.D. rats; Day 10): 32%
Pellet count (healthy male S.D. rats; Day 1): 134
Water content (healthy male S.D. rats; Day 1): 55.73%
Wet Weight (healthy male S.D. rats; Day 1): 35.38 g
Pellet count (healthy male S.D. rats; Day 5): 128
Water content (healthy male S.D. rats; Day 5): 53.80%
Wet Weight (healthy male S.D. rats; Day 5): 35.17 g
Pellet count (healthy male S.D. rats; Day 10): 121
Water content (healthy male S.D. rats; Day 10): 47.66%
Wet Weight (healthy male S.D. rats; Day 10): 29.43 g
increase of the feces amount (wet weight), average (healthy male S.D. rats; average of Days 1, 5 and 10): 61%
side effects often seen in herb extracts (cramping, bloating, gas, and diarrhea) [3]: do not have the side effects

Reference: patent publication US8466202B2, “Anthracenedione compounds” (Sunten Phytotech Co., Ltd., priority 2006, dated 2013)
